Measurements: patent US7932283B2, “Fungicide N-cyclopropyl-sulfonylamide derivatives” (Bayer Cropscience AG, priority 2006, dated 2011)

Test: logP by HPLC on reversed-phase column (C 18), EEC Directive 79/B31 Annex V.A8, methods A and B
Assay type: physicochemical
Conditions: reversed-phase HPLC column (C 18), linear gradient 10% to 90% acetonitrile
Protocol: Calibration was carried out using unbranched alkan-2-ones (having 3 to 16 carbon atoms) with known logP values (determination of the logP values by the retention times using linear interpolation between two successive alkanones).

[1] = HPLC reversed-phase C 18, method B: 40° C., 0.1% aqueous formic acid and acetonitrile
[2] = HPLC reversed-phase C 18, method A: 43° C., 0.1% aqueous phosphoric acid, acetonitrile

| SMILES | chromatographic logP [1] | chromatographic logP [2] |
| --- | --- | --- |
| Cc1nc(C(F)(F)F)c(C(=O)N(C2CC2)S(=O)(=O)c2ccc(Oc3ccccc3)cc2)s1 [Compound 66] | 4.4 |  |
| Cc1nc(C(=O)N(C2CC2)S(=O)(=O)c2ccc(C(F)(F)F)cc2)cs1 [Compound 68] |  | 3.18 |
| Cc1nc(C(=O)N(C2CC2)S(=O)(=O)c2ccc(O)c(C(F)(F)F)c2)cs1 [Compound 69] |  | 3.63 |
| Cc1nc(C(=O)N(C2CC2)S(=O)(=O)c2ccc(O)c(O)c2)cs1 [Compound 70] |  | 3.46 |
| Cc1nc(C(=O)N(C2CC2)S(=O)(=O)c2ccc(O)cc2O)cs1 [Compound 71] |  | 3.03 |
| Cc1nc(C(=O)N(C2CC2)S(=O)(=O)c2ccc(C(C)(C)C)cc2)cs1 [Compound 72] |  | 3.59 |
| Cc1cc(C(=O)N(C2CC2)S(=O)(=O)c2ccc(O)c(O)c2O)nn1C [Compound 75] | 3.3 |  |
| Cc1cc(C(=O)N(C2CC2)S(=O)(=O)c2ccc(Oc3ccc(Br)cc3)cc2)nn1C [Compound 77] | 4 |  |
| Cn1nc(C(F)(F)F)c(C(=O)N(C2CC2)S(=O)(=O)c2ccc(O)c(O)c2O)c1F [Compound 108] | 4.1 |  |
| CC(F)c1nn(C)cc1C(=O)N(C1CC1)S(=O)(=O)c1cccc(O)c1O (stereo not shown) [Compound 119] | 2.8 |  |
| CC(F)c1nn(C)cc1C(=O)N(C1CC1)S(=O)(=O)c1ccc(O)c(O)c1O (stereo not shown) [Compound 120] | 3.4 |  |
| CC(F)c1nn(C)cc1C(=O)N(C1CC1)S(=O)(=O)c1ccc(Oc2ccc(Br)cc2)cc1 (stereo not shown) [Compound 122] | 4.1 |  |
| Cc1c(C(=O)N(C2CC2)S(=O)(=O)c2ccccc2O)cnn1-c1ccccc1 [Compound 201] |  | 2.97 |
| Cn1cc(C(=O)N(C2CC2)S(=O)(=O)c2cccc(O)c2O)c(C(F)F)n1 [Compound 221] | 2.9 |  |
| Cn1nc(C2CC2)c(C(=O)N(C2CC2)S(=O)(=O)c2ccc(O)c(O)c2O)c1O [Compound 223] | 4.2 |  |
| Cn1nc(C2CC2)c(C(=O)N(C2CC2)S(=O)(=O)c2ccc(O)c(O)c2O)c1F [Compound 224] | 3.9 |  |
| Cn1nc(C2CC2)c(C(=O)N(C2CC2)S(=O)(=O)c2cccc(O)c2O)c1Cl [Compound 225] | 4.7 |  |
| COc1nn(C)c(O)c1C(=O)N(C1CC1)S(=O)(=O)c1cccc(O)c1O [Compound 278] | 3.2 |  |
| COc1nn(C)c(O)c1C(=O)N(C1CC1)S(=O)(=O)c1ccc(O)c(O)c1O [Compound 282] | 3.8 |  |

| SMILES | chromatographic logP [1] | chromatographic logP [2] |
| --- | --- | --- |
| COc1nn(C)c(O)c1C(=O)N(C1CC1)S(=O)(=O)c1ccc(Oc2ccc(Br)cc2)cc1 [Compound 284] | 4.3 |  |
| CCCOc1nn(C)cc1C(=O)N(C1CC1)S(=O)(=O)c1ccc(Oc2ccc(C)nc2)cc1Br [Compound 285] | 2.7 |  |
| CCCOc1nn(C)cc1C(=O)N(C1CC1)S(=O)(=O)c1ccc(Oc2ccc(-n3cncn3)cc2)cc1Br [Compound 286] | 3 |  |
| CCCOc1nn(C)cc1C(=O)N(C1CC1)S(=O)(=O)c1ccc(Oc2ccc3ccc(=O)oc3c2)cc1Br [Compound 287] | 3.4 |  |
| CCCOc1nn(C)cc1C(=O)N(C1CC1)S(=O)(=O)c1ccc(Oc2ccc(OC)c(OC)c2)cc1Br [Compound 288] | 3.6 |  |
| CCCOc1nn(C)cc1C(=O)N(C1CC1)S(=O)(=O)c1ccc(Oc2ccc(OC)cc2)cc1Br [Compound 289] | 4 |  |
| CCCOc1nn(C)cc1C(=O)N(C1CC1)S(=O)(=O)c1ccc(Oc2ccccc2)cc1Br [Compound 290] | 4.1 |  |
| CCCOc1nn(C)cc1C(=O)N(C1CC1)S(=O)(=O)c1ccc(Oc2ccccc2O)cc1Br [Compound 291] | 4.2 |  |
| CCCOc1nn(C)cc1C(=O)N(C1CC1)S(=O)(=O)c1ccc(Oc2cccc(N(C)C)c2)cc1Br [Compound 292] | 4.4 |  |
| CCCOc1nn(C)cc1C(=O)N(C1CC1)S(=O)(=O)c1ccc(Oc2ccc(C)cc2)cc1Br [Compound 293] | 4.5 |  |
| CCCOc1nn(C)cc1C(=O)N(C1CC1)S(=O)(=O)c1ccc(Oc2ccc(F)c(O)c2)cc1Br [Compound 294] | 4.5 |  |
| CCCOc1nn(C)cc1C(=O)N(C1CC1)S(=O)(=O)c1ccc(Oc2ccc(O)cc2)cc1Br [Compound 295] | 4.5 |  |
| CCCOc1nn(C)cc1C(=O)N(C1CC1)S(=O)(=O)c1ccc(Oc2cccc(O)c2)cc1Br [Compound 296] | 4.5 |  |
| CCCOc1nn(C)cc1C(=O)N(C1CC1)S(=O)(=O)c1ccc(Oc2cccc(C(F)(F)F)c2)cc1Br [Compound 297] | 4.5 |  |
| CCCOc1nn(C)cc1C(=O)N(C1CC1)S(=O)(=O)c1ccc(Oc2ccc(C(F)(F)F)cc2)cc1Br [Compound 298] | 4.6 |  |
| CCCOc1nn(C)cc1C(=O)N(C1CC1)S(=O)(=O)c1ccc(Oc2cccc(Br)c2)cc1Br [Compound 299] | 4.6 |  |
| CCCOc1nn(C)cc1C(=O)N(C1CC1)S(=O)(=O)c1ccc(Oc2ccc(Br)cc2)cc1Br [Compound 300] | 4.6 |  |
| CCCOc1nn(C)cc1C(=O)N(C1CC1)S(=O)(=O)c1ccc(Oc2ccc(O)cc2Cl)cc1Br [Compound 301] | 4.9 |  |

Now from value to compound:

| chromatographic logP [1] | chromatographic logP [2] | SMILES |
| --- | --- | --- |
| 2.7 |  | Cc1cc(C(=O)N(C2CC2)S(=O)(=O)c2cccc(O)c2O)nn1C [Compound 74] |
| 3.4 |  | Cc1cc(C(=O)N(C2CC2)S(=O)(=O)c2ccc(Oc3ccccc3)cc2)nn1C [Compound 76] |
| 3.6 |  | CC(C)c1nn(C)c(F)c1C(=O)N(C1CC1)S(=O)(=O)c1cccc(O)c1O [Compound 93] |
| 3.1 |  | CC(C)c1nn(C)c(F)c1C(=O)N(C1CC1)S(=O)(=O)c1ccccc1O [Compound 95] |
| 3.8 |  | CC(C)c1nn(C)c(F)c1C(=O)N(C1CC1)S(=O)(=O)c1ccc(O)cc1O [Compound 96] |
| 4 |  | CC(C)c1nn(C)c(F)c1C(=O)N(C1CC1)S(=O)(=O)c1ccc(C(F)(F)F)cc1O [Compound 97] |
| 3.4 |  | CC(C)c1nn(C)c(F)c1C(=O)N(C1CC1)S(=O)(=O)c1ccccc1C(F)(F)F [Compound 98] |
| 4.3 |  | Cn1nc(-c2ccccc2)c(C(=O)N(C2CC2)S(=O)(=O)c2ccc(O)c(O)c2O)c1F [Compound 100] |
| 3.7 |  | Cn1nc(-c2ccccc2)c(C(=O)N(C2CC2)S(=O)(=O)c2cccc(O)c2O)c1F [Compound 101] |
| 2.8 |  | Cn1nc(C(F)F)c(C(=O)N(C2CC2)S(=O)(=O)c2ccccc2O)c1F [Compound 103] |
| 3.4 |  | Cn1nc(C(F)F)c(C(=O)N(C2CC2)S(=O)(=O)c2ccc(O)cc2O)c1F [Compound 105] |
| 3 |  | Cn1nc(C(F)F)c(C(=O)N(C2CC2)S(=O)(=O)c2ccccc2C(F)(F)F)c1F [Compound 106] |
| 3.8 |  | Cn1nc(C(F)F)c(C(=O)N(C2CC2)S(=O)(=O)c2ccc(Oc3ccccc3)cc2)c1F [Compound 107] |
| 3.5 |  | CC(F)c1nn(C)cc1C(=O)N(C1CC1)S(=O)(=O)c1ccc(Oc2ccccc2)cc1 (stereo not shown) [Compound 121] |
|  | 2.28 | Cc1nn(C)c(F)c1C(=O)N(C1CC1)S(=O)(=O)c1ccccc1 [Compound 181] |
|  | 2.06 | COc1ccccc1S(=O)(=O)N(C(=O)c1c(C)nn(C)c1F)C1CC1 [Compound 182] |
|  | 2.59 | Cc1ccc(S(=O)(=O)N(C(=O)c2c(C)nn(C)c2F)C2CC2)cc1 [Compound 183] |
|  | 2.35 | COc1ccc(S(=O)(=O)N(C(=O)c2c(C)nn(C)c2F)C2CC2)cc1 [Compound 184] |

| chromatographic logP [1] | chromatographic logP [2] | SMILES |
| --- | --- | --- |
|  | 2.54 | Cc1nn(C)c(F)c1C(=O)N(C1CC1)S(=O)(=O)c1ccc([N+](=O)[O-])cc1 [Compound 185] |
|  | 2.83 | Cc1nn(C)c(F)c1C(=O)N(C1CC1)S(=O)(=O)c1ccc(O)cc1 [Compound 190] |
|  | 2.91 | Cc1nn(C)c(F)c1C(=O)N(C1CC1)S(=O)(=O)c1cc(O)ccc1O [Compound 191] |
|  | 3.48 | Cc1nn(C)c(F)c1C(=O)N(C1CC1)S(=O)(=O)c1cc(O)cc(O)c1 [Compound 193] |
|  | 2.48 | Cc1nn(C)c(F)c1C(=O)N(C1CC1)S(=O)(=O)c1cccc([N+](=O)[O-])c1 [Compound 195] |
|  | 1.95 | Cc1nn(C)cc1C(=O)N(C1CC1)S(=O)(=O)c1ccccc1O [Compound 197] |
|  | 2.58 | Cc1nn(C)c(O)c1C(=O)N(C1CC1)S(=O)(=O)c1ccccc1O [Compound 199] |
|  | 2.71 | Cn1cc(C(=O)N(C2CC2)S(=O)(=O)c2ccccc2O)c(C(F)(F)F)n1 [Compound 200] |
|  | 2.25 | Cc1nn(C)c(F)c1C(=O)N(C1CC1)S(=O)(=O)c1ccccc1[N+](=O)[O-] [Compound 202] |
|  | 2.96 | Cc1nn(C)c(F)c1C(=O)N(C1CC1)S(=O)(=O)c1ccccc1-c1ccccc1 [Compound 206] |
|  | 3.27 | Cn1nc(C(F)(F)F)c(C(=O)N(C2CC2)S(=O)(=O)c2ccccc2O)c1O [Compound 208] |
|  | 2.07 | Cc1nn(C)c(F)c1C(=O)N(C1CC1)S(=O)(=O)c1ccccc1C#N [Compound 216] |
|  | 2.25 | Cc1nn(C)c(F)c1C(=O)N(C1CC1)S(=O)(=O)c1c(F)cccc1F [Compound 217] |
| 3.9 |  | Cc1nn(C)c(C#N)c1C(=O)N(C1CC1)S(=O)(=O)c1ccc(O)c(O)c1O [Compound 228] |
| 3.6 |  | Cc1nn(C)c(N(C)C)c1C(=O)N(C1CC1)S(=O)(=O)c1ccc(O)c(O)c1O [Compound 229] |
| 3.2 |  | COc1c(C(=O)N(C2CC2)S(=O)(=O)c2ccc(O)c(O)c2O)c(C)nn1C [Compound 230] |
| 3.6 |  | Cc1nn(C)c(Oc2ccc(O)cc2)c1C(=O)N(C1CC1)S(=O)(=O)c1ccccc1O [Compound 261] |
| 3.8 |  | COc1nn(C)c(O)c1C(=O)N(C1CC1)S(=O)(=O)c1ccc(Oc2ccccc2)cc1 [Compound 280] |
